Consider six compounds from US10544120B2, “Biaryl kinase inhibitors” (BRISTOL-MYERS SQUIBB COMPANY, priority 2015, dated 2020).

This experiment has as its target GST-Xa-hAAK1 (Homo sapiens (Human), UniProt Q2M2I8). As to the kind of experiment: AAK1 Kinase Assay. It counts as biochemical. As to conditions: bacterially expressed GST-Xa-hAAK1 3.5 nM; ATP 22 μM; fluoresceinated peptide 1.5 μM; 3 hours at room temperature; Caliper LabChip 3000. The essentials:
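Bacterially expressed GST-Xa-hAAK1 was combined with substrates and compounds (eleven concentrations) and incubated 3 h at room temperature, then stopped with EDTA. Fluorescent substrate and phosphorylated product were separated electrophoretically (Caliper LabChip), and IC50 values came from non-linear regression.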

GST-Xa-hAAK1, sequence (Q2M2I8 whole entry): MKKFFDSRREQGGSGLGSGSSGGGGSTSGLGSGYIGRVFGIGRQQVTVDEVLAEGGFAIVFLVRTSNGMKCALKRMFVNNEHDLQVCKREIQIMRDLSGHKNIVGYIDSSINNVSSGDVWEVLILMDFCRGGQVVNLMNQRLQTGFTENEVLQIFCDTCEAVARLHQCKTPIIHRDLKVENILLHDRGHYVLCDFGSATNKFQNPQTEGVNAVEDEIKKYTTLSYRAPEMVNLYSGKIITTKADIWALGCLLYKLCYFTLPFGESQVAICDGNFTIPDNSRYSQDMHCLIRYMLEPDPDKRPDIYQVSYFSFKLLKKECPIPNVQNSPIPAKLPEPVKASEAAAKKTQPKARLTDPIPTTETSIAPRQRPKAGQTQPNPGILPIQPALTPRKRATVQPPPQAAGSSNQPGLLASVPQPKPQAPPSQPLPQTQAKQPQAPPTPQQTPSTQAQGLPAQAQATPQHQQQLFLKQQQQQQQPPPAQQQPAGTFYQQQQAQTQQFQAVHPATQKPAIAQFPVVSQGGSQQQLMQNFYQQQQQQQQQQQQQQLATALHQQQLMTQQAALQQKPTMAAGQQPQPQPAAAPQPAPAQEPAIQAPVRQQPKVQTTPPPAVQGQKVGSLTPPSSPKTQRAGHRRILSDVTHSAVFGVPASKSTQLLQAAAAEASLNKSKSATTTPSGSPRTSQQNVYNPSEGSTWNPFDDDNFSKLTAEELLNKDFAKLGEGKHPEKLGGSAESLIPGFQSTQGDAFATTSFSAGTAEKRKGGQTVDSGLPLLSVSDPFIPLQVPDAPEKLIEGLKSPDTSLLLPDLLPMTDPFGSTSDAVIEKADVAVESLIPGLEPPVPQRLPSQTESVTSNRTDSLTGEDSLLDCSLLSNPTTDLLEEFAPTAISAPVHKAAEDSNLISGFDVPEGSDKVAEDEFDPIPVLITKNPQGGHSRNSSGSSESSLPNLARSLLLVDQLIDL

On to `COC(=O)Nc1nccc(-c2ccc(OC[C@@](C)(N)CC(C)C)cc2)n1` [Example 505, (S)-methyl (4-(4-((2-amino-2,4-dimethylpentyl)oxy)phenyl)pyrimidin-2-yl)carbamate], for which the concentration for half-maximal inhibition (IC50) stood at 8.7 nM.
For `Cc1nccc(-c2cc(F)c(OC[C@@](C)(N)CC(C)C)cc2F)n1` [Example 506, (S)-1-(2,5-difluoro-4-(2-methylpyrimidin-4-yl)phenoxy)-2,4-dimethylpentan-2-amine], the 50% inhibitory concentration (IC50) came out at 134 nM.
For `COC(=O)Nc1cc(-c2cc(F)c(OC[C@@](C)(N)CC(C)C)cc2F)ncn1` [Example 507, (S)-methyl (6-(4-((2-amino-2,4-dimethylpentyl)oxy)-2,5-difluorophenyl)pyrimidin-4-yl)carbamate], the IC50 is 5 nM.
Then `COC(=O)Nc1nccc(-c2cc(F)c(OC[C@@](C)(N)CC(C)C)cc2F)n1` [Example 508, (S)-methyl (4-(4-((2-amino-2,4-dimethylpentyl)oxy)-2,5-difluorophenyl)pyrimidin-2-yl)carbamate], with 25 nM; and `CC(C)C[C@](C)(N)COc1cc(F)c(-c2ccnc(C(F)F)c2)cc1F` [Example 510, (S)-1-(4-(2-(difluoromethyl)pyridin-4-yl)-2,5-difluorophenoxy)-2,4-dimethylpentan-2-amine], with 19 nM.
Regarding `Cc1nccc(-c2ccc(OC[C@@](C)(N)CC(C)C)c(F)c2F)n1` [Example 511, (S)-1-(2,3-difluoro-4-(2-methylpyrimidin-4-yl)phenoxy)-2,4-dimethylpentan-2-amine], the IC50 is 5.1 nM.

In general, IC50 refers to the concentration needed to halve the response being measured.
